In patent US20250017940A1, “SELECTIVE PEPTIDOMIMETIC MODULATORS OF CAV2.2 (N-TYPE) VOLTAGE-GATED CALCIUM CHANNELS AND USES THEREOF” (New York University, priority 2023, published 2025):

Legend:
[1] = target: T1, Cav2.2 (N-type) calcium channels (Rattus norvegicus, UniProt Q02294); experiment: Whole-cell patch-clamp, isolated N-type Ca2+ currents in DRG neurons; assay type: cell-based; details: for normalized peak N-type ICa2+ density: normalized to DMSO (1.00±0.07)
T1 construct: Recordings were obtained from acutely dissociated DRG neurons; endogenous in cells; host or cells: primary rat DRG neurons
Description: Recordings were obtained from acutely dissociated DRG neurons as described earlier (Bellampalli et al., 2019). Patch-clamp recordings were performed at room temperature (22-24° C.). Currents were recorded using an EPC 10 Amplifier-HEKA (HEKA Elektronik, Ludwigshafen, Germany) linked to a computer with Patchmaster software. […]
(§1) For total calcium current (ICa^2+) recordings, the external solution consisted of the following (in mM): 110 N-methyl-D-glucamine, 10 BaCl2, 30 TEA-Cl, 10 HEPES, 10 glucose, and 0.001 TTX (pH 7.29 adjusted with TEA-OH, and mOsm/L=310). Patch pipettes were filled with an internal solution containing (in mM): 150 CsCl2, 10 HEPES, 5 Mg-ATP, and 5 BAPTA, (pH 7.2 adjusted with CsOH, and mOsm/L-305). Peak Ca^2+ current was acquired by applying 200-millisecond voltage steps from −70 to +60 mV in 10-mV increments from a holding potential of −90 mV to obtain the current-voltage (I-V) relation. To measure the different subtypes of Ca^2+ channels, DRGs were treated with a Cav inhibitor cocktail omitting the inhibitor specific to the subtype being tested (e.g., to measure Cav2.2 currents, ω-conotoxin GVIA is omitted): Nifedipine (10 μM, L-type), ω-Conotoxin-GVIA (500 nM, […]) (Feng, et al., 2001), SNX482 (200 nM, R-type) (Newcomb et al., 1998), ω-agatoxin (200 nM, P/Q-type) (Mintz et al., 1992), TTA-P2 (1 μM, T-type) (Choe et al., 2011).
(§2) Normalization of currents to each cell's capacitance (pF) was performed to allow for collection of current density data. For I-V curves, functions were fitted to data using a non-linear least squares analysis. I-V curves were fitted using double Boltzmann functions:
(§3) where x is the pre-pulse potential, V1/2 is the mid-point potential, and k is the corresponding slope factor for single Boltzmann functions. Double Boltzmann fits were used to describe the shape of the curve, not to imply the existence of separate channel populations. Numbers 1 and 2 simply indicate first and second mid-points; a along with g are fitting parameters.
(§4) Activation curves were obtained from the I-V curves by dividing the peak current at each depolarizing step by the driving force according to the equation: G=I/(Vmem-Erev), where I is the peak current, Vmem is the membrane potential and Erev is the reversal potential. The conductance (G) was normalized against the maximum conductance (Gmax). For total and the different subtypes of Ca^2+ currents, steady-state inactivation (SSI) curves were obtained by applying an H-infinity protocol that consisted of 1.5-seconds conditioning pre-pulses from −100 to +30 mV in 10-mV increments followed by a 20-millisecond test pulse to +10 mV. For Na^+ currents, SSI curves were obtained by applying an H-infinity protocol that consisted of 1-second conditioning pre-pulses from −120 to +10 mV in 10-mV increments followed by a 200-millisecond test pulse to +10 mV. Inactivation curves were obtained by dividing the peak current recorded at the test pulse by the maximum current (Imax). Activation and SSI curves were fitted with the Boltzmann equation.

[2] = system: Cav1 (L-type) calcium channels; experiment: Whole-cell patch-clamp, isolated L-type Ca2+ currents in DRG neurons; assay type: cell-based, rat
Description: Recordings were obtained from acutely dissociated DRG neurons as described earlier (Bellampalli et al., 2019). Patch-clamp recordings were performed at room temperature (22-24° C.). Currents were recorded using an EPC 10 Amplifier-HEKA (HEKA Elektronik, Ludwigshafen, Germany) linked to a computer with Patchmaster software. DRG neurons were incubated overnight (˜16-24 hours) with 20 μM of CBD3063.
as §1, §2, §3, §4

[3] = system: rat model of spared nerve injury (SNI); experiment: Spared nerve injury (SNI) model, mechanical allodynia (von Frey paw withdrawal threshold); assay type: in vivo
Description: Rats were anesthetized with ketamine/xylazine 80/12 mg/kg intraperitoneally (i.p.) (Sigma-Aldrich, St. Louis, MO), and their head was placed in a stereotaxic frame. The cisterna magna was exposed and incised. As previously reported, an 8-cm catheter (PE-10; Stoelting, Wood Dale, IL) was implanted, terminating in the lumbar region of the spinal cord (Yaksh & Rudy, 1976). Catheters were sutured (using 3-0 silk sutures) into the deep muscle and externalized at the back of the neck. Autoclips were used to close the skin, and other surgeries were performed after a 5- to 7-day recovery period.
The neuropathic pain model induced by spared nerve injury (SNI) in rats was performed as previously described. Adult male rats (250 g, Envigo, Placentia, CA) were anesthetized with isoflurane (5% induction, 2% maintenance in 2 L/min air), and skin on the lateral surface of the left hind thigh was incised. Then, the biceps femoris muscle was dissected to expose the three terminal branches of the sciatic nerve. The common peroneal and tibial branches were tightly ligated with 4-0 silk and axotomized 2.0 mm distal to the ligation. Closure of the incision was made in two layers. The muscle was sutured once with 5-0 absorbable suture; skin was autoclipped. Animals were allowed to recover for 7 days before any testing. […]
Mechanical allodynia was assessed by measuring rats' paw withdrawal threshold in response to probing with a series of fine calibrated filaments (von Frey, Stoelting, Wood Dale, IL). Rats were placed in suspended plastic cages with wire mesh floor, and each von Frey filament was applied perpendicularly to the plantar surface of the paw. The “up-and-down” method (sequential increase and decrease of the stimulus strength) was used to determine the withdrawal threshold Dixon's nonparametric method was used for data analysis, as described by Chaplan et al., 1994. Data were expressed as the mean withdrawal threshold.

[4] = 20 μM overnight, mean ± SEM (n cells)
[5] = single intrathecal 0.3 μg/kg, 7 days after SNI, male rats

T1 sequence (Q02294 whole entry): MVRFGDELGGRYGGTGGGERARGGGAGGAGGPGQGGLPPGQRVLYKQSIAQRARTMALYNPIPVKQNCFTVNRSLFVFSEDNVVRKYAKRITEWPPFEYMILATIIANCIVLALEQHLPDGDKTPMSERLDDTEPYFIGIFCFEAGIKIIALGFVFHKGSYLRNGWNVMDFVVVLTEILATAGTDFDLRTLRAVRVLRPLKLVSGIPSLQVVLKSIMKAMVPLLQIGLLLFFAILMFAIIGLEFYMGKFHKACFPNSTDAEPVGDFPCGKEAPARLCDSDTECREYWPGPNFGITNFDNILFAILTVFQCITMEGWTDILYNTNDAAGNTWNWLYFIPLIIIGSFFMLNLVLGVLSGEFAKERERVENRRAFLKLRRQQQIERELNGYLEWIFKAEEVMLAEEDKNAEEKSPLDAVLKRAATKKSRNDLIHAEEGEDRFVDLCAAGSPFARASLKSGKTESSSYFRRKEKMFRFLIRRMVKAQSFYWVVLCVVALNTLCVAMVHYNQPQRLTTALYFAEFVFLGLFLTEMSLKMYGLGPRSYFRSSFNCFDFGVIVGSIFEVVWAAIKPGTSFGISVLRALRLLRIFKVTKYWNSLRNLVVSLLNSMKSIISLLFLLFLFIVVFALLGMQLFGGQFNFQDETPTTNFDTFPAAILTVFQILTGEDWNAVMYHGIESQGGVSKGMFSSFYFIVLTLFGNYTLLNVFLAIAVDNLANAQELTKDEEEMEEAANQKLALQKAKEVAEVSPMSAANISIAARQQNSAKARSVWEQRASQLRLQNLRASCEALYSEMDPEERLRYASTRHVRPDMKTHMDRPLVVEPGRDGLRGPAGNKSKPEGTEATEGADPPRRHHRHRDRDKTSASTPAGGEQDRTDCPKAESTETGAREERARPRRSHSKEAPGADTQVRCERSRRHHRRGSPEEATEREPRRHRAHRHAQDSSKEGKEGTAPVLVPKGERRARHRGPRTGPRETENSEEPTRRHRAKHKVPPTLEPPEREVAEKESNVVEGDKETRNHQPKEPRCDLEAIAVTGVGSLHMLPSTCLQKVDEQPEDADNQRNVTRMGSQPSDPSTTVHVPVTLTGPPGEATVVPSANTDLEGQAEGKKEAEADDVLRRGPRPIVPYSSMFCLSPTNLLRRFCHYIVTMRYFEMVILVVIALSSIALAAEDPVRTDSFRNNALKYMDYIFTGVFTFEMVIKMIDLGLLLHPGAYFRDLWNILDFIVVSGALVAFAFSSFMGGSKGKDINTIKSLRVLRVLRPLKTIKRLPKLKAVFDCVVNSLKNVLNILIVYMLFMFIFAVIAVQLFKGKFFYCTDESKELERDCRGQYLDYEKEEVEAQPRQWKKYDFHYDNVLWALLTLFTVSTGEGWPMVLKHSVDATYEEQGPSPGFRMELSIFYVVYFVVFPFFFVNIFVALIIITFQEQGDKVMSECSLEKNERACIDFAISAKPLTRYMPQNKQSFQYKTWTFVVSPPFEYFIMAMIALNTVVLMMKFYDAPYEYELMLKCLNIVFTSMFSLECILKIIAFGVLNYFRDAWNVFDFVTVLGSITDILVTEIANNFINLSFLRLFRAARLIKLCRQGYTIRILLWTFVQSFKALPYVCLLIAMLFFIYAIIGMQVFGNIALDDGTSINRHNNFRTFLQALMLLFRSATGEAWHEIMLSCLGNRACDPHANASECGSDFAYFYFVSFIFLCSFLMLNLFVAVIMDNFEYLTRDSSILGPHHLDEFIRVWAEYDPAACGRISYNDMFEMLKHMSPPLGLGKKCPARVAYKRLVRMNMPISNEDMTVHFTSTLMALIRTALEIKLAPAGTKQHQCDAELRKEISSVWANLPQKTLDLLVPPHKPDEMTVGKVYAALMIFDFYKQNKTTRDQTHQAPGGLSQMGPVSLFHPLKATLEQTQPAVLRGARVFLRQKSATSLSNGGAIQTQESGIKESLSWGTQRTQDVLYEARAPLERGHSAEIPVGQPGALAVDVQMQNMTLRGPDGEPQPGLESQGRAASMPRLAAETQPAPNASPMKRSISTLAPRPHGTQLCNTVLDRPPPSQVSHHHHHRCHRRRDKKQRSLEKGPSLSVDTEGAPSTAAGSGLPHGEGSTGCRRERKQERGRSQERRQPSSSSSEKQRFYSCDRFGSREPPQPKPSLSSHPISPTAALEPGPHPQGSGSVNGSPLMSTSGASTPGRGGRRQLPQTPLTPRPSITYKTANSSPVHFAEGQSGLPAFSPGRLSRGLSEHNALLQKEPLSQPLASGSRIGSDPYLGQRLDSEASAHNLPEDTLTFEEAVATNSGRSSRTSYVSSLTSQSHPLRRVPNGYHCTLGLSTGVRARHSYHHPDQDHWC
T1 sequence (P54290 25-1091 partner): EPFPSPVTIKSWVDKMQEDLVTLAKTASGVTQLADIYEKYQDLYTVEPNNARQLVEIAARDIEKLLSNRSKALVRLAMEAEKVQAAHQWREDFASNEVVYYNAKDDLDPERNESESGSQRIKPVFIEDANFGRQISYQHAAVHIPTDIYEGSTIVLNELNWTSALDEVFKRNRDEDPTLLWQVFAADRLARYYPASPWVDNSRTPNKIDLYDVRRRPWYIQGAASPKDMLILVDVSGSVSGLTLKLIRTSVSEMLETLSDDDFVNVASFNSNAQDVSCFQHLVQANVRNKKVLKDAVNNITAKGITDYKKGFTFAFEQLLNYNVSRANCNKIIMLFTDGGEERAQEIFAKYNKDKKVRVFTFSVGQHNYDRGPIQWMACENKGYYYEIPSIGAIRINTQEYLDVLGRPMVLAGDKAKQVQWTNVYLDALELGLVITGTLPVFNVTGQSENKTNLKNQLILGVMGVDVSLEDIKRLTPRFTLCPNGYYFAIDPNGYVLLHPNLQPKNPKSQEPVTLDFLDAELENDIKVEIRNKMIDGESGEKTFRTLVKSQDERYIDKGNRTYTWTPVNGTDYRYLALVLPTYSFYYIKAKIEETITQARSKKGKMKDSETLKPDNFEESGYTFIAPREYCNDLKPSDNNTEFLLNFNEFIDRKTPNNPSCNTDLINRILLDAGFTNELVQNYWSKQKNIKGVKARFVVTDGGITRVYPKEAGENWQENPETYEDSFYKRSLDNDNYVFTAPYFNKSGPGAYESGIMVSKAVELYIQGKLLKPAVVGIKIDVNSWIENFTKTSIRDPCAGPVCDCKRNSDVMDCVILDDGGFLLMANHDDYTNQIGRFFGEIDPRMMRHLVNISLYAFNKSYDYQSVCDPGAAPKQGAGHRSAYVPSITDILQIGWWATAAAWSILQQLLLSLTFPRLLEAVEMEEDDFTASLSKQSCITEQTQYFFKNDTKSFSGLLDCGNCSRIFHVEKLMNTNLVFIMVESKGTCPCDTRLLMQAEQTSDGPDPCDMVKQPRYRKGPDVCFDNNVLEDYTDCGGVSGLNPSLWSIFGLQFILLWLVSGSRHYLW
T1 sequence (P54287 whole entry partner): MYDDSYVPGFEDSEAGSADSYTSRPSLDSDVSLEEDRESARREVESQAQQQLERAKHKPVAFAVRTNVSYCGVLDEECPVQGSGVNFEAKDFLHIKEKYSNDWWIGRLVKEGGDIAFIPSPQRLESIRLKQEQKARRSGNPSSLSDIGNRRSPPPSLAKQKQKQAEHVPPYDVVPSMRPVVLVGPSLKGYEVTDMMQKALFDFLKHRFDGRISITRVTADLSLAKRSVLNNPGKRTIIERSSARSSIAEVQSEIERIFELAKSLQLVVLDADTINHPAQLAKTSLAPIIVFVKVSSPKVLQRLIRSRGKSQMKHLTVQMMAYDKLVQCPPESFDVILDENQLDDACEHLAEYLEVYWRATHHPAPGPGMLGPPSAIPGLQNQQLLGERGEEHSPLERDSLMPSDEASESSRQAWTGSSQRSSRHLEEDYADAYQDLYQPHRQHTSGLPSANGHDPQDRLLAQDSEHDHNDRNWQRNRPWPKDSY

normalized peak N-type ICa2+ density ([1]; 2 μM overnight): 0.93±1.07 | peak N-type calcium current density ([1]; 20 μM overnight, +10 mV (DMSO: −104.00±11.32)): −69.18±6.54 pA/pF | decrease of N-type currents at peak current density ([1]; 20 μM overnight, +10 mV, vs control group): ~33.5% | N-type Ca2+ currents, activation V1/2 [1, 4]: −5.275 ± 0.669 (17) mV | N-type Ca2+ currents, activation k (slope factor) [1, 4]: 5.616 ± 0.566 (17) | N-type Ca2+ currents, inactivation V1/2 [1, 4]: −31.129 ± 2.169 (17) mV | N-type Ca2+ currents, inactivation k (slope factor) [1, 4]: −17.247 ± 2.104 (17) | normalized peak N-type ICa2+ density ([1]; 20 μM overnight): 0.74±0.04 | normalized peak N-type ICa2+ density ([1]; 50 μM overnight): 0.65±0.06
SMILES: CC(=O)N[C@@H]1CCCN(C(=O)NCCCNc2ccccn2)C1 [CBD3063, (3R)-3-acetamido-N-[3-(pyridin-2-ylamino)propyl]piperidine-1-carboxamide]
effect on Ca2+ influx through Cav1 (L-type) channels (current density-voltage curve, peak current density) ([2]; 20 μM overnight vs 0.1% DMSO): does not alter | L-type Ca2+ currents, activation V1/2 [2, 4]: −2.704 ± 0.710 (7) mV | L-type Ca2+ currents, activation k (slope factor) [2, 4]: 5.528 ± 0.615 (7) | L-type Ca2+ currents, inactivation V1/2 [2, 4]: −10.128 ± 2.133 (7) mV | L-type Ca2+ currents, inactivation k (slope factor) [2, 4]: −4.961 ± 1.976 (7) | tolerance (loss of antinociception) ([3]; repeated i.t. 0.3 μg/kg once a day for 14 days): without any tolerance | duration of reversal of mechanical allodynia with repeated intrathecal dosage ([3]; repeated i.t. 0.3 μg/kg, rats with chronic neuropathic pain): > 14 days | area under the curve of paw withdrawal threshold ([3]; repeated i.t. injection 0.3 μg/kg once a day for 14 days (DMSO: 3.37±0.86)): 47.26±8.22 | area under the curve of paw withdrawal threshold ([3]; single i.t. injection 0.3 μg/kg, 0.5 to 36 hours (DMSO: 7.650±0.84)): 57.05±3.84 | duration of reversal of mechanical allodynia [3, 5]: up to 36 hours | start of reversal of mechanical allodynia post-injection [3, 5]: 60 min
